Measured values reported in ChEMBL document CHEMBL1667852, “Isosteric replacement of the Z-enone with haloethyl ketone and E-enone in a resorcylic acid lactone series and biological evaluation” (Bioorg Med Chem Lett, 2011).
The source made the active and inactive calls. The calls are words filed in the database; no cut-off is given here.

Columns and labels:
Jurkat [1] = experiment: Antiproliferative activity against human Jurkat cells after 48 hrs by celltiter glo assay
Jurkat [2] = experiment: Antiproliferative activity against human Jurkat cells after 24 hrs by celltiter glo assay
[3] = biological target: Mast/stem cell growth factor receptor Kit (Homo sapiens, UniProt P10721); experiment: Inhibition of human recombinant c-kit kinase in cell free system after 30 mins
[4] = biological target: Vascular endothelial growth factor receptor 2 (Homo sapiens, UniProt P35968); experiment: Inhibition of human recombinant VEGFR2 expressed in Sf9 cells after 60 mins
[5] = biological target: Vascular endothelial growth factor receptor 3 (Homo sapiens, UniProt P35916); experiment: Inhibition of human recombinant VEGFR3 in cell free system after 90 mins
HUVEC [6] = experiment: Antiangiogenic activity against HUVEC co-cultured with vascular smooth muscle cells assessed as inhibition of tube formation at 33 uM after 72 hrs; format: functional, cell-based; settings: Homo sapiens
HUVEC [7] = experiment: Antiangiogenic activity against HUVEC co-cultured with vascular smooth muscle cells assessed as inhibition of organotypic capillary network formation at 33 uM after 72 hrs; format: functional, cell-based; settings: Homo sapiens
[8] = biological target: Dual specificity mitogen-activated protein kinase kinase 1 (Homo sapiens, UniProt Q02750); experiment: Inhibition of human recombinant MEK1 expressed in insect cells after 20 mins
[9] = biological target: Glycogen synthase kinase-3 alpha (Homo sapiens, UniProt P49840); experiment: Inhibition of human recombinant GSK3alpha in cell free system after 60 mins
[10] = biological target: Mitogen-activated protein kinase 7 (Homo sapiens, UniProt Q13164); experiment: Inhibition of human recombinant ERK5 in cell free system after 90 mins
[11] = biological target: T1, Receptor-type tyrosine-protein kinase FLT3 (Homo sapiens, UniProt P36888); experiment: Inhibition of human recombinant FLT-3 kinase expressed in insect cells after 90 mins
T1 sequence (P36888 whole entry): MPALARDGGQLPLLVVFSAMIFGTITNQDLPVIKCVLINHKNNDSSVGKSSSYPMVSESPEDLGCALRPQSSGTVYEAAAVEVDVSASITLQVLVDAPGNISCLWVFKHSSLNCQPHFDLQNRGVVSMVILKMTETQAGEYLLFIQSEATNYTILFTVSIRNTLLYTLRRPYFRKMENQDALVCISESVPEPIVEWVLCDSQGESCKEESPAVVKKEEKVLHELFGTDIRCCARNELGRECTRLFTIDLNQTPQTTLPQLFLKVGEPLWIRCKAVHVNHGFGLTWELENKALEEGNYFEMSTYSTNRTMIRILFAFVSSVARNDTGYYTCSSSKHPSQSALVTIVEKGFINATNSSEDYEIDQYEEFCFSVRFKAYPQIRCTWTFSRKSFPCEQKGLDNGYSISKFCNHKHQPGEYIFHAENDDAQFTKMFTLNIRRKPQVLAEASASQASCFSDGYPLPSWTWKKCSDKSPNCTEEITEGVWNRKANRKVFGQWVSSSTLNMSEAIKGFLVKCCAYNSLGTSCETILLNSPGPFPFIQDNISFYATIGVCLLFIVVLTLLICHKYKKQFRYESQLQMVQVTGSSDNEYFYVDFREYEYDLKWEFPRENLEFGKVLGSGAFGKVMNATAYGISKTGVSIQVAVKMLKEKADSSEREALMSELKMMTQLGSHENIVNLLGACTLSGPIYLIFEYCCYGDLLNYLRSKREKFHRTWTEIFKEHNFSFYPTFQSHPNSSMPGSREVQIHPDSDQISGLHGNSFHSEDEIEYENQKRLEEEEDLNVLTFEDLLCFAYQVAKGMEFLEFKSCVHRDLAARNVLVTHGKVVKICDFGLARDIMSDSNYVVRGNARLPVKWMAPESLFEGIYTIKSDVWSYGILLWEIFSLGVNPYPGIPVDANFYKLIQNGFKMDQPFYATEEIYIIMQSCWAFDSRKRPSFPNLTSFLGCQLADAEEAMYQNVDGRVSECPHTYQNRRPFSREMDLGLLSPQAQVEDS

[12] = biological target: Platelet-derived growth factor receptor alpha (Homo sapiens, UniProt P16234); experiment: Inhibition of human recombinant PDGFRalpha in cell free system after 60 mins
[13] = biological target: Mitogen-activated protein kinase 3 (Homo sapiens, UniProt P27361); experiment: Inhibition of human recombinant ERK1 expressed in E.coli after 30 mins
[14] = biological target: Mitogen-activated protein kinase 1 (Homo sapiens, UniProt P28482); experiment: Inhibition of human recombinant ERK2 expressed in E.coli after 15 mins
[15] = biological target: Vascular endothelial growth factor receptor 1 (Homo sapiens, UniProt P17948); experiment: Inhibition of human recombinant VEGFR1 expressed in Sf9 cells after 10 mins
[16] = biological target: Glycogen synthase kinase-3 beta (Homo sapiens, UniProt P49841); experiment: Inhibition of human recombinant GSK3-beta in cell free system after 90 mins
HUVEC [17] = experiment: Antiangiogenic activity against HUVEC co-cultured with vascular smooth muscle cells assessed as inhibition of organotypic capillary network formation at 11 uM after 72 hrs; format: functional, cell-based; settings: Homo sapiens
HUVEC [18] = experiment: Antiangiogenic activity against HUVEC co-cultured with vascular smooth muscle cells assessed as inhibition of tube formation at 11 uM after 72 hrs; format: functional, cell-based; settings: Homo sapiens
HUVEC [19] = experiment: Antiangiogenic activity against HUVEC co-cultured with vascular smooth muscle cells assessed as inhibition of organotypic capillary network formation upto 100 uM after 72 hrs; format: functional, cell-based; settings: Homo sapiens
HUVEC [20] = experiment: Antiangiogenic activity against HUVEC co-cultured with vascular smooth muscle cells assessed as inhibition of tube formation upto 100 uM after 72 hrs; format: functional, cell-based; settings: Homo sapiens
[21] = biological target: Platelet-derived growth factor receptor beta (Homo sapiens, UniProt P09619); experiment: Inhibition of human recombinant PDGFRbeta expressed in insect cells after 30 mins
Sequence of Platelet-derived growth factor receptor beta (P09619 whole entry): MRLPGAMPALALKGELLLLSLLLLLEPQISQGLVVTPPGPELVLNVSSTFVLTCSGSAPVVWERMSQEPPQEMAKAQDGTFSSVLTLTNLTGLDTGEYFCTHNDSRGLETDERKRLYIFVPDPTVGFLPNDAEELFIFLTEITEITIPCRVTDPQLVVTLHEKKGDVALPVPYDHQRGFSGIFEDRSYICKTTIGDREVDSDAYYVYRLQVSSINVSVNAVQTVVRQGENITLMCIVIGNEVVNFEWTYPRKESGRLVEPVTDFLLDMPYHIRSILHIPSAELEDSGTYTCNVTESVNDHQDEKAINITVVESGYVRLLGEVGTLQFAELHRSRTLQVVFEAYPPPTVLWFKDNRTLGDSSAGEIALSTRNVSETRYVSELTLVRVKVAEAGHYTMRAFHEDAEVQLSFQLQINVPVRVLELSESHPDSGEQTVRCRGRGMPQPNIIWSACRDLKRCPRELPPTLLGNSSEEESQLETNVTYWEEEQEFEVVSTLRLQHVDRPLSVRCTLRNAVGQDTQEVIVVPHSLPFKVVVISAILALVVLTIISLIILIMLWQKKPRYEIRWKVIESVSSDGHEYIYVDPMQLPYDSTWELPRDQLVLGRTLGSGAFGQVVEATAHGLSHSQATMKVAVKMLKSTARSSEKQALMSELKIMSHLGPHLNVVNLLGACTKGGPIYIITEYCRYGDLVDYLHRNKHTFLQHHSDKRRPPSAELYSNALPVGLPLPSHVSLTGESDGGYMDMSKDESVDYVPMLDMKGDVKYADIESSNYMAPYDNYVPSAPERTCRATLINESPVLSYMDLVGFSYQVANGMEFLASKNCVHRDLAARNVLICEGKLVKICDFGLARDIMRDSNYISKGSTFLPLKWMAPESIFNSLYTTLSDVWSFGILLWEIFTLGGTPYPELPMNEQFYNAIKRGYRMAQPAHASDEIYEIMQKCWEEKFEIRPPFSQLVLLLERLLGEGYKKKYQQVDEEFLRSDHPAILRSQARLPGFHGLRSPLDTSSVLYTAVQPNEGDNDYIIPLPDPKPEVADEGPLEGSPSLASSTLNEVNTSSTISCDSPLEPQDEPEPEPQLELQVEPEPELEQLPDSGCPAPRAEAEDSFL

Sequence of Vascular endothelial growth factor receptor 3 (P35916 whole entry): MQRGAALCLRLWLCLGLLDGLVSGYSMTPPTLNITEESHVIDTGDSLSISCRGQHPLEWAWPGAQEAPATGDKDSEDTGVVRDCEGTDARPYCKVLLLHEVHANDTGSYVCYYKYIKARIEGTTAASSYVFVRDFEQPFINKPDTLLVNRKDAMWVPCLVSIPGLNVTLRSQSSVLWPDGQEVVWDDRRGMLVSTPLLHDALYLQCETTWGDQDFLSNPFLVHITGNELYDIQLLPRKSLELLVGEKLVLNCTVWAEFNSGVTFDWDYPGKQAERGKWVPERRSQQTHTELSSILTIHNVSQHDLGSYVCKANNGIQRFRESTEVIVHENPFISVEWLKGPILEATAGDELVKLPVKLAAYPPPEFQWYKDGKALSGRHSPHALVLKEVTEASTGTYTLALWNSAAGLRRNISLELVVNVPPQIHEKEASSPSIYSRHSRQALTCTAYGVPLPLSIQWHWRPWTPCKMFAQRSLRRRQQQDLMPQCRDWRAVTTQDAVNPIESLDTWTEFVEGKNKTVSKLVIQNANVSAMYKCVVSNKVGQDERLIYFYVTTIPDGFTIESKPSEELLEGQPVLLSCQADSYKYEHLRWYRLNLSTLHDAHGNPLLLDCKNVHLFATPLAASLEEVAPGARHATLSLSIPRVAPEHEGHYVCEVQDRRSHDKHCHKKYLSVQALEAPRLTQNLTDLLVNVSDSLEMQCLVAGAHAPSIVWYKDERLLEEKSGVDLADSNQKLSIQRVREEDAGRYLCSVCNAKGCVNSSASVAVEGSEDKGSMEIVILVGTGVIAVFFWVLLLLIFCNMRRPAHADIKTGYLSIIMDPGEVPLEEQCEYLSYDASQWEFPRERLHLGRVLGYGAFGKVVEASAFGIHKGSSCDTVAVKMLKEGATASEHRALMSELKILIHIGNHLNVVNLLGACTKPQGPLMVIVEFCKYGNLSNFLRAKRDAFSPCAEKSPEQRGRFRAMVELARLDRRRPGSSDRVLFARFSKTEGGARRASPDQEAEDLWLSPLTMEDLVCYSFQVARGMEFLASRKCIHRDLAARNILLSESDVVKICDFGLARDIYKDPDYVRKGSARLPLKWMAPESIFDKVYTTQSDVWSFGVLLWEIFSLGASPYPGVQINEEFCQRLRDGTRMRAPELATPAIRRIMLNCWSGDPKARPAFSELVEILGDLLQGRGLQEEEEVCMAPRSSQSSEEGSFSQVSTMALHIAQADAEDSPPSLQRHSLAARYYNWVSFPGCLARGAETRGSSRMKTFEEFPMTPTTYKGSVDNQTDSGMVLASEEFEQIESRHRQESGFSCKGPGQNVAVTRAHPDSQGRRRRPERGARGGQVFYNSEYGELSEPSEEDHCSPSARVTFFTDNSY
Sequence of Dual specificity mitogen-activated protein kinase kinase 1 (Q02750 whole entry): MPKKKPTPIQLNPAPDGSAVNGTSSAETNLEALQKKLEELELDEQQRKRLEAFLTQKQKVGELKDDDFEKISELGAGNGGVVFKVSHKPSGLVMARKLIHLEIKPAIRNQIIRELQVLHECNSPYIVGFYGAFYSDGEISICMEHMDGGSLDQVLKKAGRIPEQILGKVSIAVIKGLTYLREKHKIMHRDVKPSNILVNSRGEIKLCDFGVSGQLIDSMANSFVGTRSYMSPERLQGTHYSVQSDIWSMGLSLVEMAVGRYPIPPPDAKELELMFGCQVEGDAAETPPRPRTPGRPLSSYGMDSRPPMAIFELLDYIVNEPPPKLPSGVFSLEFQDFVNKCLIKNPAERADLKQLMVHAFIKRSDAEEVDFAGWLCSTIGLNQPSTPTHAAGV
Sequence of Glycogen synthase kinase-3 alpha (P49840 whole entry): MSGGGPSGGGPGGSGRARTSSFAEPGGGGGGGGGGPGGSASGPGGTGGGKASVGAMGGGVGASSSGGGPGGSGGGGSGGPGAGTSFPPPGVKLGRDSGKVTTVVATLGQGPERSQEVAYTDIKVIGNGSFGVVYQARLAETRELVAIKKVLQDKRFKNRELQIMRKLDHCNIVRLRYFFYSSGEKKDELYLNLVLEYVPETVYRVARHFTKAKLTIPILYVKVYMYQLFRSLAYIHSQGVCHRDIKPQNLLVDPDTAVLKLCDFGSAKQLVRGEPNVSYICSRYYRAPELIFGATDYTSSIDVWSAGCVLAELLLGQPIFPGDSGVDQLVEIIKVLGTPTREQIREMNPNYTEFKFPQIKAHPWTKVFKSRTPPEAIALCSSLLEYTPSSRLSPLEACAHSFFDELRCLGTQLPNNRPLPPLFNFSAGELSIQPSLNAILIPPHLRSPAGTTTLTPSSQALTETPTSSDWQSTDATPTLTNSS
Sequence of Mitogen-activated protein kinase 1 (P28482 whole entry): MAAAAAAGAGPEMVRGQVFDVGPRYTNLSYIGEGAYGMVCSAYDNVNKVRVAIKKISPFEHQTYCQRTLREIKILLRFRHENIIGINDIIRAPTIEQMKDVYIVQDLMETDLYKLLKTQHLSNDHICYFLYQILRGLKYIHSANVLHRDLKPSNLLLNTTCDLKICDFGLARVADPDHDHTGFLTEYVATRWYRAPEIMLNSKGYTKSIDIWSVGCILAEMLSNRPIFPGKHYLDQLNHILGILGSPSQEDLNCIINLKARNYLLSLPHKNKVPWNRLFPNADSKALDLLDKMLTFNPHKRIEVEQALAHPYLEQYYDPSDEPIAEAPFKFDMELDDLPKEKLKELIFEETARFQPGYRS
Sequence of Mitogen-activated protein kinase 3 (P27361 whole entry): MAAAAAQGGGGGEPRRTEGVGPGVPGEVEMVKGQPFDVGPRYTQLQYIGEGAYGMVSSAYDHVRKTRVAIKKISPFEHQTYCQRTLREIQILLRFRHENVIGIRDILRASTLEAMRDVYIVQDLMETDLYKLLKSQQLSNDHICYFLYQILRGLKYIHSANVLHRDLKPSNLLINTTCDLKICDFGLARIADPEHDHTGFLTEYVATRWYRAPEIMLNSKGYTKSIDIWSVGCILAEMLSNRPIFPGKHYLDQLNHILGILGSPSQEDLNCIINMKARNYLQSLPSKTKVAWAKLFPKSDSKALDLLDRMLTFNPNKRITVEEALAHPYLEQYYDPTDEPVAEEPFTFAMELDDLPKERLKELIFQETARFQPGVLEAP
Sequence of Mast/stem cell growth factor receptor Kit (P10721 whole entry): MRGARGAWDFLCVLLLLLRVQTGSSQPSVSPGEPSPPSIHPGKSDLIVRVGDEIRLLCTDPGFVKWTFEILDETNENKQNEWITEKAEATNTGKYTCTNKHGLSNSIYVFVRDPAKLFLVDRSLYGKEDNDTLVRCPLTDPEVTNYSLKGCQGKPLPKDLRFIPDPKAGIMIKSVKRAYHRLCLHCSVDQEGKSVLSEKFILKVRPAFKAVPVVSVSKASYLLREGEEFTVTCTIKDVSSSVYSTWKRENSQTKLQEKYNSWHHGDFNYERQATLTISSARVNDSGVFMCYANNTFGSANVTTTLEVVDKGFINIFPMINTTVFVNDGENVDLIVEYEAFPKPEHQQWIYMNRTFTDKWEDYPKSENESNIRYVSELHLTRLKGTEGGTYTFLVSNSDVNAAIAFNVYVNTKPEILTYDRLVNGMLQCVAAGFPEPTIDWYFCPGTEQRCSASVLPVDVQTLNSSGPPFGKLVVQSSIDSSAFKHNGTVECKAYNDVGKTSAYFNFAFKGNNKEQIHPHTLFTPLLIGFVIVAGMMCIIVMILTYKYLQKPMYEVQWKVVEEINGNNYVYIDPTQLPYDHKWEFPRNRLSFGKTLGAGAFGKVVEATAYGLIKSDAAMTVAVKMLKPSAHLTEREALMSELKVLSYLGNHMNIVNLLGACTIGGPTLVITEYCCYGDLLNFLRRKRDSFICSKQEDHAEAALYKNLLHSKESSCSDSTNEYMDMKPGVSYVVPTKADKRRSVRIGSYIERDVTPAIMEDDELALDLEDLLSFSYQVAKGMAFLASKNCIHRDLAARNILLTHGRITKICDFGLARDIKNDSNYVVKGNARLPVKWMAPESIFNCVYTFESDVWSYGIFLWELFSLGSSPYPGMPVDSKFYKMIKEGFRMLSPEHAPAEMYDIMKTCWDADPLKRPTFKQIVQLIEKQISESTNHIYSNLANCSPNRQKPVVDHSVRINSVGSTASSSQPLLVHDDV

Row | SMILES | IC50 (Jurkat [1]) [µM] | IC50 (Jurkat [2]) [µM] | IC50 [3] [µM] | IC50 [4] [µM] | IC50 [5] [µM] | IC50 [8] [µM] | IC50 [11] [µM] | IC50 [12] [µM] | IC50 [15] [µM] | also measured
1 | COc1cc(O)c2c(c1)/C=C\CCCC(=O)C[C@H](Cl)C[C@H](C)OC2=O | 8.8 | 9.5 | 100 | 82 | > 100 |  |  |  |  | 
2 | COc1cc(O)c2c(c1)/C=C/CCCC(O)C[C@H](Cl)C[C@H](C)OC2=O (some centres not stated) |  |  |  |  |  |  |  |  |  | Activity (HUVEC [6]): Active; Activity (HUVEC [7]): Active
3 | COc1cc(O)c2c(c1)/C=C/CCCC(=O)C[C@H](Cl)C[C@H](C)OC2=O | 9.2 | 10.9 | > 100 |  | > 100 |  |  |  |  | 
4 | COc1cc(O)c2c(c1)/C=C/C[C@@H](O)[C@H](O)C(=O)/C=C\C[C@H](C)OC2=O | 5.5 | 7 | 0.0096 | 0.00049 | 0.0005 | 0.002 | 0.0049 | 0.00024 | 0.012 | IC50 [9]: 1.9 µM; IC50 [10]: > 100 µM; IC50 [13]: 1.4 µM; IC50 [14]: 1.3 µM; IC50 [16]: 18 µM
5 | COc1cc(O)c2c(c1)CCCCCC(=O)C[C@H](Br)C[C@H](C)OC2=O | 9.7 | 11.4 | 11 | 4.3 |  |  |  |  | > 100 | 
6 | COc1cc(O)c2c(c1)CCCCCC(=O)/C=C/C[C@H](C)OC2=O | 9.7 | 13 | 1.3 | 0.31 | 0.72 | 12 | 0.33 | 0.089 | 33 | IC50 [9]: > 100 µM; Activity (HUVEC [17]): Active; IC50 [13]: > 100 µM; IC50 [14]: > 100 µM; Activity (HUVEC [18]): Active
7 | COc1cc(O)c2c(c1)CCCCCC(=O)CCC[C@H](C)OC2=O |  |  |  |  |  |  |  |  |  | Activity (HUVEC [19]): inactive; Activity (HUVEC [20]): inactive
8 | COc1cc(O)c2c(c1)CCCCCC(=O)/C=C\C[C@H](C)OC2=O | 11 | 26 | 4.1 | 0.54 | 1.2 | 17 | 0.85 | 0.44 | > 100 | 
9 | COc1cc(O)c2c(c1)/C=C/CCCC(=O)/C=C/C[C@H](C)OC2=O | 8.9 | 11 | 1.3 | 1 | 1.4 | 22 | 0.33 | 0.027 | 51 | IC50 [9]: > 100 µM; IC50 [13]: > 100 µM; IC50 [14]: > 100 µM; IC50 [21]: 9.2 µM; IC50 [16]: > 100 µM
10 | COc1cc(O)c2c(c1)/C=C\CCCC(=O)C[C@H](Br)C[C@H](C)OC2=O | 7.5 | 6.1 | 81 | 24 |  |  |  |  |  | 
11 | COc1cc(O)c2c(c1)CCCCCC(=O)C[C@H](Cl)C[C@H](C)OC2=O | 8.4 | 10.6 | 47 | 93 |  |  |  |  |  | 
12 | COc1cc(O)c2c(c1)/C=C\CCCC(=O)/C=C/C[C@H](C)OC2=O | 15.4 | 19.5 | 1.4 | 2.3 | 1.6 | > 100 | 0.59 | 0.45 | 15 | IC50 [21]: > 100 µM
13 | COc1cc(O)c2c(c1)/C=C/CCCC(=O)C[C@H](Br)C[C@H](C)OC2=O | 9.7 | 11.7 | 2.8 | > 100 |  |  |  |  |  | IC50 [21]: > 100 µM
